Data published in US8143421B2, “Broadspectrum substituted benzimidazole sulfonamide HIV protease inhibitors” (priority 2002, dated 2012).
Like-named read-outs stand apart in the source and are kept apart here.

How the values were obtained:
[1] = test system: HIV-1 strain LAI; experiment: Cellular anti-HIV assay, MT4 cells, MTT readout, wild type HIV-1 strain LAI; assay type: cell-based
Description: The compounds of the present invention were examined for anti-viral activity in a cellular assay. […] The cellular assay was performed according to the following procedure.

[2] = test system: mutant B; experiment: Antiviral spectrum, fold resistance towards mutant B; assay type: cell-based; conditions: FR=IC50(mutant strain)/IC50(HIV-1 strain LAI)
Description: (§1) Because of the increasing emergence of drug resistant HIV strains, the present compounds were tested for their potency against clinically isolated HIV strains harboring several mutations. These mutations are associated with resistance to protease inhibitors and result in viruses that show various degrees of phenotypic cross-resistance to the currently commercially available drugs such as for instance saquinavir, ritonavir, nelfinavir, indinavir and amprenavir. The viral strains R13025, R13027, R13028, R13029, R13034, R13080, T13127 and R13363 contained mutations as indicated below in Table 3.

[3] = test system: mutant C; experiment: Antiviral spectrum, fold resistance towards mutant C; assay type: cell-based; conditions: FR=IC50(mutant strain)/IC50(HIV-1 strain LAI)
Description: as §1

[4] = test system: mutant D; experiment: Antiviral spectrum, fold resistance towards mutant D; assay type: cell-based; conditions: FR=IC50(mutant strain)/IC50(HIV-1 strain LAI)
Description: as §1

[5] = test system: mutant A; assay type: cell-based; conditions: FR=IC50(mutant strain)/IC50(HIV-1 strain LAI)
Description: (§2) HIV- or mock-infected MT4 cells were incubated for five days in the presence of various concentrations of the inhibitor. […] Cell viability is measured by measuring the concentration of MTT, a yellow, water soluble tetrazolium dye that is converted to a purple, water insoluble formazan in the mitochondria of living cells only. Upon solubilization of the resulting formazan crystals with isopropanol, the absorbance of the solution is monitored at 540 nm. The values correlate directly to the number of living cells remaining in the culture at the completion of the five day incubation. The inhibitory activity of the compound was monitored on the virus-infected cells and was expressed as IC50 and IC90. These values represent the amount of the compound required to protect 50% and 90%, respectively, of the cells from the cytopathogenic effect of the virus. […] The selectivity index (SI) (ratio CC50/IC50) is an indication of the selectivity of the anti-HIV activity of the inhibitor. Wherever results are reported as e.g. pIC50 or pCC50 values, the result is expressed as the negative logarithm of the result expressed as IC50 or CC50 respectively.
(§3) Because of the increasing emergence of drug resistant HIV strains, the present compounds were tested for their potency against clinically isolated HIV strains harboring several mutations. […] The viral strains R13025, R13027, R13028, R13029, R13034, R13080, T13127 and R13363 contained mutations as indicated below in Table 3.
(§4) As a measure of the broad spectrum activity of the present compounds, the fold resistance (FR), defined as FR=IC50(mutant strain)/IC50(HIV-1 strain LAI), was determined.

[6] = test system: mutant E; assay type: cell-based; conditions: FR=IC50(mutant strain)/IC50(HIV-1 strain LAI)
Description: as §2, §3, §4

[7] = test system: mutant F; experiment: Antiviral spectrum, fold resistance towards mutant F; assay type: cell-based; conditions: FR=IC50(mutant strain)/IC50(HIV-1 strain LAI)
Description: as §1

[8] = test system: mutant H; experiment: Antiviral spectrum, fold resistance towards mutant H; assay type: cell-based; conditions: FR=IC50(mutant strain)/IC50(HIV-1 strain LAI)
Description: as §1

[9] = in vitro; conditions: human
Description: as §2, §4

[10] = test system: mutant G; experiment: Antiviral spectrum, fold resistance towards mutant G; assay type: cell-based; conditions: FR=IC50(mutant strain)/IC50(HIV-1 strain LAI)
Description: as §1

[11] = test system: mock-infected MT4 cells; experiment: Toxicity on mock-infected MT4 cells (CC50)
Description: as §2, §4

[12] = Oral availability in the rat, serum concentration; assay type: in vivo
Description: The compounds are formulated as a 20 mg/ml solution or suspension in DMSO, PEG400 or cyclodextin 40% in water. For most experiments in the rat (male and female rats), three dosing groups are formed: 1/single intraperitoneal (IP) dose at 20 mg/kg using DMSO formulation; 2/single oral dose at 20 mg/kg using […] oral dose at 20 mg/kg using PEG400 formulation. Blood is sampled at regular time intervals after dosing and drug concentrations in the serum are determined using a LC-MS bioanalytical method. Serum concentrations are expressed in […]. Serum concentration at 30 minutes (30′) and at 3 hours (180′) can be determined as these values reflect the extent of absorption (30′) and the speed of elimination (180′). The rat serum concentration at 30 min and 180 min following IP administration of 20 mg/kg of compound 18 are 2012 ng/ml and 190 ng/ml respectively. The rat serum concentration at 30 min and 180 min following oral administration of 20 mg/kg as a DMSO formulation of compound 18 are 148 ng/ml and 44 ng/ml respectively; whereas in PEG400 said concentrations are respectively 475 ng/ml and 63 ng/ml.

[13] = Human immunodeficiency virus 1, 120 h, Table 1, MT4 cells, five days, HIV-1 strain LAI, read-out: pIC50 (LAI) (converted)
[14] = Human immunodeficiency virus 1, MT4, Table 4, wild type HIV-LAI strain, read-out: WT (pIC50 against wild type HIV-LAI strain) (converted)
[15] = Table 1, MT4 cells, five days, HIV-1 strain LAI
[16] = Table 4, wild type HIV-LAI strain
[17] = pCC50 value as determined with mock transfected cells

Compound | FR towards mutant B [2] | FR towards mutant C [3] | FR towards mutant D [4] | FR value towards mutant A [5] | FR towards mutant E [6] | FR towards mutant F [7] | pIC50 (LAI) [1, 15] | WT (pIC50 against wild type HIV-LAI strain) [1, 16] | FR towards mutant G [10] | Tox (pCC50) [11, 17] | Tox (pCC50) [11] | also measured
Cc1nc2ccc(S(=O)(=O)N(CC(C)C)C[C@@H](O)[C@H](Cc3ccccc3)NC(=O)O[C@H]3CO[C@H]4OCC[C@H]43)cc2n1Cc1ccccc1 [Compound 2, [(1S,2R)-2-hydroxy-3-[[[[2-methyl-1-(phenylmethyl)]benzimidazol-6-yl]sulfonyl]-(2-methylpropyl)amino]-1-(phenylmethyl)propyl]carbamic acid, [(3R,3aS,6aR)-hexahydrofuro[2,3-b]furan-3-yl]ester] | 6.3 | 1.9 | 6.3 | 32 | 2.9 | 162 |  |  |  |  |  | IC50 [1, 13]: 1 nM; IC50 [1, 14]: 1 nM; FR towards mutant H [8]: 89; CC50 at 5 days [9]: 63100 nM
CC(C)CN(CC(O)C(Cc1ccccc1)NC(=O)OC1COC2OCCC12)S(=O)(=O)c1ccc2ncn(CCc3ccccc3)c2c1 (centres unmarked) [Compound 5] | 1.9 | 0.9 | 1.9 |  | 3.2 | 78 | 8.7 | 8.7 | 110 | 4.1 |  | FR towards mutant H [8]: 49
COC(=O)Nc1nc2ccc(S(=O)(=O)N(CC(C)C)C[C@@H](O)[C@H](Cc3ccccc3)NC(=O)COc3c(C)cccc3C)cc2[nH]1 [Compound 8, [(1S,2R)-2-hydroxy-3-[[[2-[(methoxycarbonyl)amino]-1H-benzimidazol-5-yl]sulfonyl](2-methylpropyl)amino]-1-(phenylmethyl)propyl]-(2,6-dimethylphenoxy)acetamide] | 2.0 | 1.4 | 1.9 | 2.1 | 2.3 | 16.2 |  |  | 89 |  |  | IC50 [1, 13]: 3.16 nM; IC50 [1, 14]: 3.16 nM; CC50 at 5 days [9]: > 100000 nM
CC(=O)Nc1nc2ccc(S(=O)(=O)N(CC(C)C)C[C@@H](O)[C@H](Cc3ccccc3)NC(=O)COc3c(C)cccc3C)cc2[nH]1 [Compound 9, [(1S,2R)-3-[[[2-(acetylamino)benzimidazol-5-yl]sulfonyl](2-methyl-propyl)amino]-2-hydroxy-1-(phenylmethyl)propyl]-(2,6-dimethylphenoxy)acetamide] | 1.3 | 4.4 | 2.4 | 4.3 | 2.8 | 14 |  |  | 107 |  |  | IC50 [1, 13]: 3.98 nM; IC50 [1, 14]: 3.98 nM; CC50 at 5 days [9]: > 100000 nM
CC(C)CN(CC(O)C(Cc1ccccc1)NC(=O)OC1COC2OCCC12)S(=O)(=O)c1ccc2ncn(C)c2c1 (centres unmarked) [Compound 18] |  |  |  |  |  |  |  |  |  |  |  | rat serum concentration at 30 min ([12]; IP administration of 20 mg/kg, 30 min): 2012 ng/mL; rat serum concentration at 180 min ([12]; IP administration of 20 mg/kg, 180 min): 190 ng/mL; rat serum concentration at 30 min ([12]; oral administration of 20 mg/kg as a DMSO formulation, 30 min): 148 ng/mL; rat serum concentration at 180 min ([12]; oral administration of 20 mg/kg as a DMSO formulation, 180 min): 44 ng/mL; rat serum concentration at 30 min ([12]; oral administration of 20 mg/kg in PEG400, 30 min): 475 ng/mL; rat serum concentration at 180 min ([12]; oral administration of 20 mg/kg in PEG400, 180 min): 63 ng/mL
COC(=O)Nc1nc2ccc(S(=O)(=O)N(CC(C)C)C[C@@H](O)[C@H](Cc3ccccc3)NC(=O)c3ccc(N)cc3C)cc2[nH]1 [Compound 22] | 0.78 | 1.1 | 0.71 | 0.74 | 0.72 | 0.69 | 7.4 | 7.4 | 4.3 | 4.1 |  | 
CC(=O)Nc1nc2ccc(S(=O)(=O)N(CC(C)C)C[C@@H](O)[C@H](Cc3ccccc3)NC(=O)OC3COC4OCCC34)cc2[nH]1 (some centres unmarked) [Compound 38] | 0.32 | 0.39 | 0.19 | 0.12 | 0.17 | 0.21 | 6.7 | 6.7 | 0.60 |  | <4 | 
CC(C)CN(CC(O)C(Cc1ccccc1)NC(=O)OC1COC2OCCC12)S(=O)(=O)c1ccc2nc(NC(=O)OCCN(C)C)[nH]c2c1 (centres unmarked) [Compound 48] | 1.9 | 0.38 | 0.35 | 0.37 | 0.32 | 0.35 | 6.4 | 6.4 | 0.85 | <4 |  | 
CC(C)CN(CC(O)C(Cc1ccccc1)NC(=O)OC1COC2OCCC12)S(=O)(=O)c1ccc2nc(CO)[nH]c2c1 (centres unmarked) [Compound 56] | 0.66 | 0.43 | 0.18 | 0.28 | 0.18 | 0.34 | 5.7 | 5.7 | 0.83 |  | <4 | 
CC(C)CN(C[C@@H](O)[C@H](Cc1ccccc1)NC(=O)OCc1cncs1)S(=O)(=O)c1ccc2nc(N)[nH]c2c1 [Compound 57] | 0.30 | 0.31 | 0.34 | 0.37 | 0.32 | 0.30 | 5.7 | 5.7 | 2.0 |  | <4 | 
CC(C)CN(C[C@@H](O)[C@H](Cc1ccccc1)NC(=O)OC1COC2OCCC12)S(=O)(=O)c1ccc2nc(NC(=O)NCCN(C)C)[nH]c2c1 (some centres unmarked) [Compound 58] | 1.0 | 1.0 | 0.32 | 1.0 | 0.37 | 1.1 | 5.6 | 5.6 | 1.1 |  | <4 | 
[(1S,2R)-2-hydroxy-3-[[(2-methylbenzimidazol-5-yl)sulfonyl](2-methylpropyl)amino]-1-(phenylmethyl)propyl]-carbamic acid, [(3R,3aS,6aR)-hexahydrofuro[2,3-b]furan-3-yl]ester [Compound 24] | 0.85 | 1.1 | 0.89 | 2.6 | 0.83 | 4.7 | 7.3 | 7.3 | 35 | <4 |  | 
